Assay results: ChEMBL document CHEMBL3991601, “The target landscape of clinical kinase drugs” (Science, 2017)
The source made the active and inactive calls.

What was measured:
[1] = target: T1, Dual specificity mitogen-activated protein kinase kinase 3 (Homo sapiens, UniProt P46734)
T1 sequence (P46734 whole entry): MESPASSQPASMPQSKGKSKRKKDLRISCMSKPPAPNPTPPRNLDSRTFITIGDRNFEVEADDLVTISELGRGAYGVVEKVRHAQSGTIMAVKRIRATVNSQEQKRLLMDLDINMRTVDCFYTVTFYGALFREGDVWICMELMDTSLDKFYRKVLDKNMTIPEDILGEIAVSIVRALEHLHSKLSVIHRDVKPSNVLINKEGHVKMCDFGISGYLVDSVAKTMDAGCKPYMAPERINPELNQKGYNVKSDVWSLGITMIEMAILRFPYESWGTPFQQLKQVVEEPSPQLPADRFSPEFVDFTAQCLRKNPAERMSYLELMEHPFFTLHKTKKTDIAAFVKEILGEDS

Activated CDC42 kinase 1 = Activated CDC42 kinase 1 (Homo sapiens, UniProt Q07912)
Chain of Activated CDC42 kinase 1 (Q07912 whole entry): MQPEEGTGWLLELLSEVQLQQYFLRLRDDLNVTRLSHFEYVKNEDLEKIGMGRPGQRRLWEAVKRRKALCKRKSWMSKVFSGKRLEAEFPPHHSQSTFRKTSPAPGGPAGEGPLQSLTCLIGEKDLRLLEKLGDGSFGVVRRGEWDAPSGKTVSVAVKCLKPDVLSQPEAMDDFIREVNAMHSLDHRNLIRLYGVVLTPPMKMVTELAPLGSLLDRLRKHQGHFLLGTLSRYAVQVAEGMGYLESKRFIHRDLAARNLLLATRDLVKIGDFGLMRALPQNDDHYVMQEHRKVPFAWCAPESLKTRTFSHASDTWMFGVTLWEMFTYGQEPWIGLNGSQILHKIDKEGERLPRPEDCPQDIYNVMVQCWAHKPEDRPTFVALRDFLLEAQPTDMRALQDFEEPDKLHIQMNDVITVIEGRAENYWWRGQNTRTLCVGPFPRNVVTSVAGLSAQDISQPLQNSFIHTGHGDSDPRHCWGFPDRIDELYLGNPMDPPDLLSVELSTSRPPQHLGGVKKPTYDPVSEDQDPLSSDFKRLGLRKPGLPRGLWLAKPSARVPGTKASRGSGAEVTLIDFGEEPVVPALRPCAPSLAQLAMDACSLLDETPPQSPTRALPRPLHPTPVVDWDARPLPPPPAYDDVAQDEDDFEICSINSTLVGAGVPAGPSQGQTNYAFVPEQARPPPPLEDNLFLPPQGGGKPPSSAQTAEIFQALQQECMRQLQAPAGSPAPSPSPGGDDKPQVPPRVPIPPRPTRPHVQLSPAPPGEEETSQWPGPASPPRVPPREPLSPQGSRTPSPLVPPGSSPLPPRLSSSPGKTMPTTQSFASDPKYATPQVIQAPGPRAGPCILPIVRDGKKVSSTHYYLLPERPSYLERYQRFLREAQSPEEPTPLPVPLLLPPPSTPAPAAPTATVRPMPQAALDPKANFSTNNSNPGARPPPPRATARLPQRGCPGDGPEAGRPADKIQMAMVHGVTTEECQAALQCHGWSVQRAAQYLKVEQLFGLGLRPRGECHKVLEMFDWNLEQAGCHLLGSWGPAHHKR

Scaffold protein ILK = target: T2, Scaffold protein ILK (Homo sapiens, UniProt Q13418)
T2 sequence (Q13418 whole entry): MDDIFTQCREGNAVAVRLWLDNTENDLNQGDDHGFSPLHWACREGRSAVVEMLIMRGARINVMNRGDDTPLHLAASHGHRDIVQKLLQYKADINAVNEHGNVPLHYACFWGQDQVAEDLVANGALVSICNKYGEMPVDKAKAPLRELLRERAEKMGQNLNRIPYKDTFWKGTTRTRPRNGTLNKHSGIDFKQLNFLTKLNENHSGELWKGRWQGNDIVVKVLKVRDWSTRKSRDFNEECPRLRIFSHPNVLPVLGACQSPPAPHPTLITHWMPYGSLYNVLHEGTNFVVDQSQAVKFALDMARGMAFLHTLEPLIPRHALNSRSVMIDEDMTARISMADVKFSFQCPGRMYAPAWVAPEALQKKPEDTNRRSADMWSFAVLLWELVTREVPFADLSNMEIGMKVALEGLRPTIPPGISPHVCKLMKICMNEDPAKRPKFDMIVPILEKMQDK

[2] = target: Non-receptor tyrosine-protein kinase TYK2 (Homo sapiens, UniProt P29597)
Chain of Non-receptor tyrosine-protein kinase TYK2 (P29597 whole entry): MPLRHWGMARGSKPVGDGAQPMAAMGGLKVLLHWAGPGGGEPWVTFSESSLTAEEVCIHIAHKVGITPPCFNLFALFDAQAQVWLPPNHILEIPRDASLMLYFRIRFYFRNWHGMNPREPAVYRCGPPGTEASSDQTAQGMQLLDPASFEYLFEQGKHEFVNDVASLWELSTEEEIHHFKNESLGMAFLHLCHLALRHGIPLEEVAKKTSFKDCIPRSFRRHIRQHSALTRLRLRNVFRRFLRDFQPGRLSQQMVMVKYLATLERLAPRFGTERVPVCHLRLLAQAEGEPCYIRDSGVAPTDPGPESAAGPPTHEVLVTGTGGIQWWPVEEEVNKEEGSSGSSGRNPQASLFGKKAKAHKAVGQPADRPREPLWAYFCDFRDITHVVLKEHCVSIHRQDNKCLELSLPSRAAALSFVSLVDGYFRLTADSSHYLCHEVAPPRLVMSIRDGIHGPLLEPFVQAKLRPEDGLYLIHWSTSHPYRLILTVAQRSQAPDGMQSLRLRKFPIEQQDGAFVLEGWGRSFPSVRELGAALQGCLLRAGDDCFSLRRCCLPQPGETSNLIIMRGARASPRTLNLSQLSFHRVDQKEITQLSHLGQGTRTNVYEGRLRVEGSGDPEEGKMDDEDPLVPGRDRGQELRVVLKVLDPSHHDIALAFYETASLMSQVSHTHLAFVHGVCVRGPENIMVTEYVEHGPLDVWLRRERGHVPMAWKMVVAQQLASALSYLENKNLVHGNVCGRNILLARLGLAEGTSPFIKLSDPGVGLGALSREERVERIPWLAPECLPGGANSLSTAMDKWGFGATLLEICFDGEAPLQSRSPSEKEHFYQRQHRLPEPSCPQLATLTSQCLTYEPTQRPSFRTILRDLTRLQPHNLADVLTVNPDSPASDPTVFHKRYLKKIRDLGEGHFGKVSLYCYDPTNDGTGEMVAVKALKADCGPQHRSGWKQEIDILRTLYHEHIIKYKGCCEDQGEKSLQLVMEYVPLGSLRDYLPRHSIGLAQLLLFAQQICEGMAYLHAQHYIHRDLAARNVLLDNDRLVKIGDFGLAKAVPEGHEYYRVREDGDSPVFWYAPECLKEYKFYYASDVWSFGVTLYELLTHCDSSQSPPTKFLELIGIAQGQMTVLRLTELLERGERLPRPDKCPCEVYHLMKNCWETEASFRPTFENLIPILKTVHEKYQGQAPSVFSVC

Heme oxygenase 2 = target: T3, Heme oxygenase 2 (Homo sapiens, UniProt P30519)
T3 sequence (P30519 whole entry): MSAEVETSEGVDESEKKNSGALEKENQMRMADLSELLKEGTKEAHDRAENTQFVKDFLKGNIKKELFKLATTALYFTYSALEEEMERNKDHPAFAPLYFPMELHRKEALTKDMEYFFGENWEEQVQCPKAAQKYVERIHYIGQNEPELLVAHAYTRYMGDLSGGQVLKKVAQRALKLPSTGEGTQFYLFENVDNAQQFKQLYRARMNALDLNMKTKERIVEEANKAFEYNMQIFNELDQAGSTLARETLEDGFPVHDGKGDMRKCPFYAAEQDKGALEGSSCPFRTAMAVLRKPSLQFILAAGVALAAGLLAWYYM

[3] = target: T4, Serine/threonine-protein kinase Nek9 (Homo sapiens, UniProt Q8TD19)
T4 sequence (Q8TD19 whole entry): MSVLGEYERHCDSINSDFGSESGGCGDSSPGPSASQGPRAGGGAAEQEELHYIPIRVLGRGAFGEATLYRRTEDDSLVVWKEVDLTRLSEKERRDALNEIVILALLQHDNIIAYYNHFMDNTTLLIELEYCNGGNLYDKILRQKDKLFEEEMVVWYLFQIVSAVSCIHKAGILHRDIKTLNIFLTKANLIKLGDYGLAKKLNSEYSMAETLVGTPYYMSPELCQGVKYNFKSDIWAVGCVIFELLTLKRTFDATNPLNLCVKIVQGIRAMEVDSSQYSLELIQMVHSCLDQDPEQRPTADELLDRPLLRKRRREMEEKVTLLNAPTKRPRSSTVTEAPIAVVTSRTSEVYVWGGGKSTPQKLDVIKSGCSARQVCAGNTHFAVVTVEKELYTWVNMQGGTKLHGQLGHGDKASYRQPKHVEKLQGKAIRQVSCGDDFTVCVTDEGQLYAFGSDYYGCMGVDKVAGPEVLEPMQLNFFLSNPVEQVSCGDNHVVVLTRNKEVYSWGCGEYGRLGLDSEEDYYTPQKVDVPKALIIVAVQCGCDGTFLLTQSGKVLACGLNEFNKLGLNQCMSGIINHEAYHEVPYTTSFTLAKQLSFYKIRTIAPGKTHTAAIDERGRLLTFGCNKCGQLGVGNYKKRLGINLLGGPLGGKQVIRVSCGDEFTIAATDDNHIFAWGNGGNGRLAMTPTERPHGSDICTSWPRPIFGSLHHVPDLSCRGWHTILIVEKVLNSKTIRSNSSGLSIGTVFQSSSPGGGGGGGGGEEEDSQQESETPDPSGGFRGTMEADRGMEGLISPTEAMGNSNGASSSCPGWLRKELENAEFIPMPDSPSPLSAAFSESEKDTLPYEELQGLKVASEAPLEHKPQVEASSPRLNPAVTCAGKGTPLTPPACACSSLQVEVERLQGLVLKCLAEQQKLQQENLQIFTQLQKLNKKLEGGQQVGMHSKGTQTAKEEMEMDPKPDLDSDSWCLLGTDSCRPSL

[4] = target: T5, Signal recognition particle receptor subunit alpha (Homo sapiens, UniProt P08240)
T5 sequence (P08240 whole entry): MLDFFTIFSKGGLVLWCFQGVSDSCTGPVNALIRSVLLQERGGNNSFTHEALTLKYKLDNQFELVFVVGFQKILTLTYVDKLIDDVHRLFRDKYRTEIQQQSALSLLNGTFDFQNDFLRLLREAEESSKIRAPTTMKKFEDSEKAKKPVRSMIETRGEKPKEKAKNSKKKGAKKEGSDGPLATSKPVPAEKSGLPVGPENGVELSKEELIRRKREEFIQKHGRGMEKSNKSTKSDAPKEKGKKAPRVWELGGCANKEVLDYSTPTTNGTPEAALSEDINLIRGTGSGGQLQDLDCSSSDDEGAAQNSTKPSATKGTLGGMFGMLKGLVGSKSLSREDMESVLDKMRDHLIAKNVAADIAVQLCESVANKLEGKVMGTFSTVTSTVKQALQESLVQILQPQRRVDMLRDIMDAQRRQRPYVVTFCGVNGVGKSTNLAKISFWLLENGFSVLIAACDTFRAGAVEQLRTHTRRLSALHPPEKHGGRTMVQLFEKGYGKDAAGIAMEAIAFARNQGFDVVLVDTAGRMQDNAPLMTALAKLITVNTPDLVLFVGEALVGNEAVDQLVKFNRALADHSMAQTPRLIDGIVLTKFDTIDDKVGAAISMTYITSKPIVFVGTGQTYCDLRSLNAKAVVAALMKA

[5] = target: Serine/threonine-protein kinase 16 (Homo sapiens, UniProt O75716)
Chain of Serine/threonine-protein kinase 16 (O75716 whole entry): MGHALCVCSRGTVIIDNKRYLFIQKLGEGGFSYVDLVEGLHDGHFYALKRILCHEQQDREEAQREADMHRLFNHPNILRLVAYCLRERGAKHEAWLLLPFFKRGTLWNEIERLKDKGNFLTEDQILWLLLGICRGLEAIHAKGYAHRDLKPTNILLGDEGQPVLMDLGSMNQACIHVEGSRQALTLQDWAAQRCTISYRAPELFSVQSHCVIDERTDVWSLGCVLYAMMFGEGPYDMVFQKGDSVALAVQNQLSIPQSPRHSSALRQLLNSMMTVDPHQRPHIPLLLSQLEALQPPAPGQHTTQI

Activin receptor type-2B = Activin receptor type-2B (Homo sapiens, UniProt Q13705)
Chain of Activin receptor type-2B (Q13705 whole entry): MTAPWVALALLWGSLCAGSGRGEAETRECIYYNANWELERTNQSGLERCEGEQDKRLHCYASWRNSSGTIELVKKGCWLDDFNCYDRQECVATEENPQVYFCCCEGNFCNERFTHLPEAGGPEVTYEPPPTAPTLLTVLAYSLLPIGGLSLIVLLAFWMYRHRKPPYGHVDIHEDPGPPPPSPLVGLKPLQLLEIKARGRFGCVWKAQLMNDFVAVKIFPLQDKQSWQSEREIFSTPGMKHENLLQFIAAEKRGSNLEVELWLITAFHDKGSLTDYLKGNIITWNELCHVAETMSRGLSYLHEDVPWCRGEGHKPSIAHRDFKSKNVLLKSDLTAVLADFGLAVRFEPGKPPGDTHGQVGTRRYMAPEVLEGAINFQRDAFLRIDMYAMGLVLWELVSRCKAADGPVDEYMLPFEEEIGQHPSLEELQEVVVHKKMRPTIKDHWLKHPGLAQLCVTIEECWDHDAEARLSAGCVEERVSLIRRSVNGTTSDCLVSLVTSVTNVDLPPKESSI
Further: in the data inactive means no Kd found up to 30 µM.

CCc1nc(C(N)=O)c(Nc2ccc(N3CCC(N4CCN(C)CC4)CC3)c(OC)c2)nc1NC1CCOCC1 [GILTERITINIB]
Kd [1]: > 30 µM (inactive) | Kd (Activated CDC42 kinase 1): 3.15 µM (active) | Kd (Scaffold protein ILK): > 30 µM (inactive) | Kd [2]: > 30 µM (inactive) | Kd (Heme oxygenase 2): > 30 µM (inactive) | Kd [3]: > 30 µM (inactive) | Kd [4]: > 30 µM (inactive) | Kd [5]: 0.295 µM (active) | Kd (Activin receptor type-2B): > 30 µM (inactive)

O=C(NOC[C@H](O)CO)c1ccc(F)c(F)c1Nc1ccc(I)cc1F [MIRDAMETINIB]
Kd [1]: > 30 µM (inactive) | Kd (Activated CDC42 kinase 1): > 30 µM (inactive) | Kd (Scaffold protein ILK): > 30 µM (inactive) | Kd [2]: > 30 µM (inactive) | Kd (Heme oxygenase 2): > 30 µM (inactive) | Kd [3]: > 30 µM (inactive) | Kd [4]: > 30 µM (inactive) | Kd [5]: > 30 µM (inactive) | Kd (Activin receptor type-2B): > 30 µM (inactive)

O=C(NC[C@H](O)CO)c1ccncc1Nc1ccc(I)cc1F [PIMASERTIB]
Kd [1]: > 30 µM (inactive) | Kd (Activated CDC42 kinase 1): > 30 µM (inactive) | Kd (Scaffold protein ILK): > 30 µM (inactive) | Kd [2]: > 30 µM (inactive) | Kd (Heme oxygenase 2): > 30 µM (inactive) | Kd [3]: > 30 µM (inactive) | Kd [4]: > 30 µM (inactive) | Kd [5]: > 30 µM (inactive) | Kd (Activin receptor type-2B): > 30 µM (inactive)

Cc1cc(-c2cc(OC(=O)c3ccccc3)ccc2Cl)cc2nnc(Nc3ccc(OCCN4CCCC4)cc3)nc12 [TG100-801]
Kd [1]: > 30 µM (inactive) | Kd (Activated CDC42 kinase 1): > 30 µM (inactive) | Kd (Scaffold protein ILK): > 30 µM (inactive) | Kd [2]: > 30 µM (inactive) | Kd (Heme oxygenase 2): > 30 µM (inactive) | Kd [3]: > 30 µM (inactive) | Kd [4]: > 30 µM (inactive) | Kd [5]: > 30 µM (inactive) | Kd (Activin receptor type-2B): 0.419 µM

O=C(Nc1ccc(OC(F)(F)F)cc1)c1sccc1NCc1ccnc2ccccc12 [OSI-930]
Kd [1]: > 30 µM (inactive) | Kd (Activated CDC42 kinase 1): > 30 µM (inactive) | Kd (Scaffold protein ILK): > 30 µM (inactive) | Kd [2]: > 30 µM (inactive) | Kd (Heme oxygenase 2): > 30 µM (inactive) | Kd [3]: > 30 µM (inactive) | Kd [4]: > 30 µM (inactive) | Kd [5]: > 30 µM (inactive) | Kd (Activin receptor type-2B): > 30 µM (inactive)

NC[C@@](O)(c1ccc(Cl)cc1)c1ccc(-c2cn[nH]c2)cc1 [AT-13148]
Kd [1]: > 30 µM (inactive) | Kd (Activated CDC42 kinase 1): > 30 µM (inactive) | Kd (Scaffold protein ILK): > 30 µM (inactive) | Kd [2]: > 30 µM (inactive) | Kd (Heme oxygenase 2): > 30 µM (inactive) | Kd [3]: > 30 µM (inactive) | Kd [4]: > 30 µM (inactive) | Kd [5]: > 30 µM (inactive) | Kd (Activin receptor type-2B): > 30 µM (inactive)

COc1cc2nccc(Oc3ccc(NC(=O)C4(C(=O)Nc5ccc(F)cc5)CC4)cc3)c2cc1OC [CABOZANTINIB]
Kd [1]: > 30 µM (inactive) | Kd (Activated CDC42 kinase 1): > 30 µM (inactive) | Kd (Scaffold protein ILK): > 30 µM (inactive) | Kd [2]: > 30 µM (inactive) | Kd (Heme oxygenase 2): > 30 µM (inactive) | Kd [3]: > 30 µM (inactive) | Kd [4]: > 30 µM (inactive) | Kd [5]: > 30 µM (inactive) | Kd (Activin receptor type-2B): > 30 µM (inactive)

C[C@@H]1COC(Nc2ccc3ncnc(Nc4ccc(OCc5nccs5)c(Cl)c4)c3c2)=N1 [VARLITINIB]
Kd [1]: > 30 µM (inactive) | Kd (Activated CDC42 kinase 1): > 30 µM (inactive) | Kd (Scaffold protein ILK): > 30 µM (inactive) | Kd [2]: > 30 µM (inactive) | Kd (Heme oxygenase 2): > 30 µM (inactive) | Kd [3]: > 30 µM (inactive) | Kd [4]: > 30 µM (inactive) | Kd [5]: > 30 µM (inactive) | Kd (Activin receptor type-2B): > 30 µM (inactive)

Cc1cc(Nc2nc(N[C@@H](C)c3ncc(F)cn3)ncc2Cl)n[nH]1 [AZD-1480]
Kd [1]: > 30 µM (inactive) | Kd (Activated CDC42 kinase 1): 0.515 µM (active) | Kd (Scaffold protein ILK): > 30 µM (inactive) | Kd [2]: > 30 µM (inactive) | Kd (Heme oxygenase 2): > 30 µM (inactive) | Kd [3]: > 30 µM (inactive) | Kd [4]: > 30 µM (inactive) | Kd [5]: > 30 µM (inactive) | Kd (Activin receptor type-2B): > 30 µM (inactive)

CCc1cc2c(cc1N1CCC(N3CCOCC3)CC1)C(C)(C)c1[nH]c3cc(C#N)ccc3c1C2=O [ALECTINIB]
Kd [1]: > 30 µM (inactive) | Kd (Activated CDC42 kinase 1): > 30 µM (inactive) | Kd (Scaffold protein ILK): > 30 µM (inactive) | Kd [2]: > 30 µM (inactive) | Kd (Heme oxygenase 2): > 30 µM (inactive) | Kd [3]: > 30 µM (inactive) | Kd [4]: > 30 µM (inactive) | Kd [5]: > 30 µM (inactive) | Kd (Activin receptor type-2B): > 30 µM (inactive)

FC(F)(F)c1ccc(CNc2ccc(Cc3c[nH]c4ncc(Cl)cc34)cn2)cn1 [PEXIDARTINIB]
Kd [1]: > 30 µM (inactive) | Kd (Activated CDC42 kinase 1): > 30 µM (inactive) | Kd (Scaffold protein ILK): > 30 µM (inactive) | Kd [2]: > 30 µM (inactive) | Kd (Heme oxygenase 2): > 30 µM (inactive) | Kd [3]: > 30 µM (inactive) | Kd [4]: > 30 µM (inactive) | Kd [5]: > 30 µM (inactive) | Kd (Activin receptor type-2B): > 30 µM (inactive)

O=S(=O)(c1cccc2c(O)nccc12)N1CCCNCC1 [HYDROXYFASUDIL]
Kd [1]: > 30 µM (inactive) | Kd (Activated CDC42 kinase 1): > 30 µM (inactive) | Kd (Scaffold protein ILK): > 30 µM (inactive) | Kd [2]: > 30 µM (inactive) | Kd (Heme oxygenase 2): > 30 µM (inactive) | Kd [3]: > 30 µM (inactive) | Kd [4]: > 30 µM (inactive) | Kd [5]: > 30 µM (inactive) | Kd (Activin receptor type-2B): > 30 µM (inactive)
